{
  "source": "patent US10143691B2",
  "about": "“Pathogenic control of apoptosis” (CSIR, priority 2014, dated 2018)",
  "key": {"[1]": {"tested_on": "hnRNP-K", "experiment": "Immunofluorescence of hnRNP-K cellular location in Ghost(3) cells", "type": "cell-based", "settings": "Ghost(3) cells exposed to HIV-1 and concurrently treated with 10 μM antiretroviral", "protocol": "(§1) For each experiment, Ghost(3) cells or IPSC-derived primary macrophages were infected or treated with 500 nM Doxorubicin on coverslips, fixed for 10 mins in fresh 4% paraformaldehyde at room temperature, then washed 3 times in PBS and permeabilised for 10 mins in ice-cold methanol at […]. Coverslips were washed once in PBS and incubated in blocking buffer (5% goat serum, 0.3% TritonX100 in PBS) for 60 mins at room temperature. Cells were incubated in primary antibody solution (1% BSA, 0.3% Triton X100 in PBS) overnight at 4° C. Double strand breaks were detected using rabbit polyclonal anti-phosphohistone H2A.X Ser139 (Cell Signaling). Activated ATM was detected using rabbit monoclonal anti-phosphoATM Ser1981 (Cell Signaling). The ability of p53 to regulate apoptosis was detected using rabbit polyclonal antiphosphop53 Ser46 (Cell Signaling). Viral p24 was detected using mouse monoclonal anti-HIV1p24 (AIDS Research and Reference Reagent Program, Division of AIDS, NIAID, NIH). HuR was detected using mouse monoclonal anti-HuR 3A2 (Santa Cruz Biotechnology). hnRNPK was detected using goat polyclonal anti-hnRNPK P20 (Santa Cruz Biotechnology). Coverslips were washed 3 times (5 mins each on an orbital shaker) with wash buffer (0.05% Tween20 in PBS), followed by incubation with secondary antibodies conjugated to either Atto550 or Atto565 or Atto647 for 60 mins at room temperature. Coverslips were washed 3 times (5 mins each on an orbital shaker) with wash buffer (0.05% Tween20 in PBS). Coverslips were incubated in equilibration buffer (0.4% glucose, 2×SCC) for 5 mins and counter stained with 1 mg/ml DAPI (4′,6-diamidino-2-phenylindole; Life Technologies). Coverslips were mounted in glox buffer (3.7 mg/ml glucose oxidase, 1 U catalase) and imaged.\nFor each experiment, cells were infected or treated with drugs on coverslips, fixed for 10 mins in fresh 4% paraformaldehyde at room temperature, then washed 3 times in PBS and permeabilised for 10 mins in ice-cold methanol at −20° C. Coverslips were washed once in PBS and incubated in blocking buffer (5% goat serum, 0.3% Triton-X100 in PBS) for 60 mins at room temperature. Cells were incubated in primary antibody solution (1% BSA, 0.3% Triton X-100 in PBS) overnight at 4° C. Double strand breaks were detected using rabbit polyclonal anti-phospho-histone H2A.X Ser139 (Cell Signaling). Activated ATM was detected using rabbit monoclonal anti-phospho-ATM Ser1981 (Cell Signaling). The ability of p53 to regulate apoptosis was detected using rabbit polyclonal anti-phospho-p53 Ser46 (Cell Signaling). Viral p24 was detected using mouse monoclonal anti-HIV-1-p24 (AIDS Research and Reference Reagent Program, Division of AIDS, NIAID, NIH). HuR was detected using mouse monoclonal anti-HuR 3A2 (Santa Cruz Biotechnology). hnRNP-K was detected using goat polyclonal anti-hnRNP-K P-20 (Santa Cruz Biotechnology). Coverslips were washed 3 times (5 mins each on an orbital shaker) with wash buffer (0.05% Tween-20 in PBS), followed by incubation with secondary antibodies conjugated to either Atto-550 or Atto-565 or Atto-647 for 60 mins at room temperature. Coverslips were washed 3 times (5 mins each on an orbital shaker) with wash buffer (0.05% Tween-20 in PBS). Coverslips were incubated in equilibration buffer (0.4% glucose, 2×SCC) for 5 mins and counter stained with 1 mg/ml DAPI (4′,6-diamidino-2-phenylindole; Life Technologies). Coverslips were mounted in glox buffer (3.7 mg/ml glucose oxidase, 1 U catalase) and imaged."}, "[2]": {"tested_on": "H2A.XpSer139", "experiment": "Immunofluorescence staining of double strand breaks (H2A.XpSer139)", "type": "cell-based", "settings": "HIV-1 infected cells treated with 10 μM drug", "protocol": "as §1\nFor each experiment, cells were infected or treated with drugs on coverslips, fixed for 10 mins in fresh 4% paraformaldehyde at room temperature, then washed 3 times in PBS and permeabilised for 10 mins in ice-cold methanol at −20° C. Coverslips were washed once in PBS and incubated in blocking buffer (5% goat serum, 0.3% Triton-X100 in PBS) for 60 mins at room temperature. […] Double strand breaks were detected using rabbit polyclonal anti-phospho-histone H2A.X Ser139 (Cell Signaling). Activated ATM was detected using rabbit monoclonal anti-phospho-ATM Ser1981 (Cell Signaling). The ability of p53 to regulate apoptosis was detected using rabbit polyclonal anti-phospho-p53 Ser46 (Cell Signaling). Viral p24 was detected using mouse monoclonal anti-HIV-1-p24 (AIDS Research and Reference Reagent Program, Division of AIDS, NIAID, NIH). HuR was detected using mouse monoclonal anti-HuR 3A2 (Santa Cruz Biotechnology). hnRNP-K was detected using goat polyclonal anti-hnRNP-K P-20 (Santa Cruz Biotechnology). […]"}, "[3]": {"tested_on": "lincRNAp21", "experiment": "lincRNA-p21 expression by RNA FISH spot counts and quantitative RT-PCR", "type": "cell-based, human", "settings": "HIV-infected Ghost(3) cells, qRT-PCR relative to HPRT", "protocol": "RNA FISH on Ghost(3) cells was performed according to Raj, 2008 and on primary macrophages according to Schaffer, 2013. For both methods 48 20mer probes (Biosearch) targeted to human lincRNAp21 were synthesised baring a […] C6dT. The amino group was subsequently conjugated to the following NHSester dyes: ATTO565, ATTO647N (ATTOTEC) or Alexa Fluor 647 (Invitrogen). Briefly, oligonucleotide probes were ethanol precipitated and resuspended in 0.1 M sodium tetraborate (Sigma). Approximately 0.3 mg of the NHSester dye (ATTOTEC) was dissolved in dimethyl sulphoxide (Sigma). The dye solution was added to the probe solution and incubated overnight in the dark at 37° C. Following the conjugation reaction, the probes were ethanol precipitated overnight, and resuspended in 0.1 M triethyl ammonium (Sigma). Conjugated probes were separated and purified to enrich for dyeconjugated probes by reverse phase HPLC on a C18 column. […]\nFor each experiment, Ghost(3) cells or IPSO-derived primary macrophages were infected or treated with 500 nM Doxorubicin over time and total RNA was extracted from cells using TRIzol® (Life Technologies), treated with RQ1 RNase-free DNase (Promega) and reverse transcribed using SuperScript III Reverse Transcriptase (Life Technologies). Quantitative RTPCR was performed using Sso Fast EvaGreen™ supermix (BioRad) on a BioRad CFX96 real-time PCR detection system. […]"}, "[4]": {"tested_on": "HIV-1", "experiment": "HIV-1 infection/replication in Ghost(3) reporter cells (LTR-driven GFP expression)", "type": "cell-based", "settings": "Ghost(3) cells exposed to HIV-1 and treated", "description": "Viral stocks were titred using TZMBI cells and used to infect Ghost(3) cells using an MOI=1.0, or IPSO-derived macrophages using an MOI=0.5. Where indicated, Ghost(3) cells were treated with 10 μM of either Raltegravir, Maraviroc, Tenofovir (AIDS Research and Reference Reagent Program, Division of AIDS, NIAID, NIH) or Nutlin3a (Sigma) for up to 48 hours.\nViral stocks were titred using TZM-BI cells and used to infect Ghost(3) cells using an MOI=1.0, or IPSO-derived macrophages using an MOI=0.5. Where indicated, cells were treated with 10 μM of either Raltegravir, Maraviroc, Tenofovir (AIDS Research and Reference Reagent Program, Division of AIDS, NIAID, NIH) or Doxorubicin (Sigma-Aldrich), or Nutlin3a (Sigma-Aldrich), or MAP2K1 inhibitor (U-0126) or ERK2 inhibitor (FR180204) for up to 48 hours."}},
  "note": "Entries after “also recorded” stand apart in the source; their conditions may differ.",
  "data": [
    {"smiles": "Cc1nnc(C(=O)NC(C)(C)c2nc(C(=O)NCc3ccc(F)cc3)c(O)c(=O)n2C)o1", "note": "[Raltegravir]", "values": [
      {"measurement": "cellular location of hnRNP-K", "setting": "[1]", "value": "no nuclear hnRNPK over time; also recorded: cytoplasmic hnRNPK"},
      {"measurement": "H2A.X staining in HIV-infected cells", "setting": "[2]", "value": "abrogate this effect"},
      {"measurement": "lincRNA-p21 expression", "setting": "[3]", "value": "no change in lincRNAp21 expression; also recorded: does not affect lincRNAp21 expression"},
      {"measurement": "HIV-1 infection / replication (GFP expression)", "setting": "[4]", "value": "no GFP expression"}
    ]}
  ]
}
